From a melting point compilation (Tetko et al.; mined from patent text by program, amines drawn as free bases though some values may be those of a salt)

| melting point [°C] | SMILES |
| --- | --- |
| 210 to 211 | O=C(C=Cc1ccc(CNCC2CCCCC2O)cc1)Nc1ccc(-c2ccc(Cl)cc2)cc1 (configuration not stated) |
| 148 to 150 | CCn1cc(C(=O)O)c(=O)c2cc(F)c(N3CCNC(CN(C)C)C3)cc21 (configuration not stated) |
| 124 | N#Cc1ccc(CC23CCCN2C(=O)N(Cc2cc(Cl)cc(Cl)c2)C3=O)cc1 (configuration not stated) |
| 80 | CCCCc1c(C(=O)OCC)[nH]c2cccc(SC)c2c1=O |
| 183 to 184 | Cn1ccc2cc(NC(=O)CC34CC5CC(CC(C5)C3)C4)ccc21 |
| 95 to 97 | COC(=O)c1nc(-c2ccc(CF)cc2)cc(N)c1Cl |
| 90 to 94 | Cc1ccc(CC2(O)CCN(CC3Cc4cc(O)ccc4N3)CC2)cc1 (racemic) |
| 56 to 58 | Cc1cc([N+](=O)[O-])ccc1NCC1CCCO1 (configuration not stated) |
| 151 to 152 | COc1nccc(C)c1NC(=O)c1cccnc1NC1CC1 |
| 152 | Cc1ccc(CC2CCN(C(=O)c3cc(=O)c4cc(O)ccc4[nH]3)CC2)cc1 |
| 85 to 95 | COC(=O)c1ccc(S(C)(=O)=O)c(C(=O)NN)c1Cl |
| 180 to 182 | CC(=O)N1CCc2c(sc(C)c2C(=O)CCN2CCC(c3noc4cc(F)ccc34)CC2)C1 |
| 293 to 294 | Cc1nc(NC(=O)c2cnn3c(C4CC4)cc(-c4ccc(Cl)cc4)nc23)sc1S(=O)(=O)NC(C)(C)CO |
| 235 to 236 | Cn1c(C(F)(F)F)cc(=O)n(-c2ccc(Cl)c(C(=O)O)c2)c1=O |
| 177 to 178 | COC(=O)c1nccnc1NS(=O)(=O)c1cccc(Cl)c1Cl |
| 95 to 96 | CCOC(=O)CCCc1oc(=O)[nH]c1-c1ccc(Cl)s1 |
| 290 to 292 | Cc1cccc2c(=O)n(C3CCC(=O)NC3=O)cnc12 (configuration not stated) |

| melting point [°C] | SMILES |
| --- | --- |
| 88 to 90 | CC1(C)C2CC[C@]1(C)C(=O)C(C(=O)Nc1ccc(Cl)c(Cl)c1)C2=O (some centres not stated) |
| 67 | CCCC(Cn1cncn1)(OCC)c1ccc(Cl)cc1Cl (configuration not stated) |
| 84 to 86 | CC(C)[C@@H]1CC[C@@H](C)C[C@H]1OC(=O)NCCC(C)n1cnc2c(N)nc3ccccc3c21 (some centres not stated) |
| 122 to 124 | Cc1ccc(COC(=O)N2CCC[C@H]2C(=O)N[C@H](CO)C(C)C)cc1 |
| 136 | CC(=O)OC1c2ccc(Cl)cc2CC1S(C)(=O)=O (configuration not stated) |
| 85 to 86 | Cc1nc2ccc(Cl)cc2s1 |
| 179 to 183 | COC(=O)C1(NC(=O)Cc2c(C)ccc(-c3ccc(Cl)cc3)c2C)CCC(F)(F)CC1 |
| 214 to 217 | O=C(Nc1ccc2cc(CN3CCCC3)ccc2c1)c1ccc(-c2ccc(Cl)cc2)cc1 |
| 196 to 200 | CCOC(=O)N1C(=O)OC(c2c(Cl)cccc2OC)C1=O (configuration not stated) |
| 186 to 189 | Cc1nc2c(N)c(C(=O)C3OC3c3ccsc3)ccn2c1C (configuration not stated) |
| 161 to 163 | Fc1cc(Cl)c2nc(Cl)sc2c1-n1nc2c(c1Cl)CCCC2 |
| 68 | CC(C)(C)OC(=O)C1CCCC(c2ccccc2)N1 (configuration not stated) |
| 160 to 161 | COCCOc1ccc(COC(=O)NS(=O)(=O)NCC(C)C)c(Oc2ncc(C(F)(F)F)cc2Cl)c1 |
| 111 to 113 | CCOC(=O)c1ccc(NS(C)(=O)=O)c(Oc2ccc(F)cc2F)c1 |
| 157 | CCC1(CC(=O)O)OCCc2c1[nH]c1c(OCC(F)(F)F)c(Cl)ccc21 (configuration not stated) |
| 136 to 137 | CCOC(=O)C1=C(N)N=C(OCC)C(C(=O)OCC)C1c1cc([N+](=O)[O-])ccc1Cl (configuration not stated) |
| 228 to 229 | NC(=O)N1C(=O)C(C(=O)c2ccc(Br)s2)c2cc(Cl)ccc21 (configuration not stated) |

The remaining lines, values behind:

| SMILES | melting point [°C] |
| --- | --- |
| CN1c2ccc(-c3cccc4ccccc34)cc2S(=O)c2cc(-c3cccc4ccccc34)ccc21 | 221 to 225 |
| CC(C)(C)c1cc(C=Nn2ccnc2)cc(C(C)(C)C)c1O | 171 to 174 |
| O=S1(=O)OCCN1Cc1ccccc1Cl | 61 to 62.5 |
| O=S(=O)(c1ccc(Cl)cc1)c1ccc(-c2ccc(O)cc2)cc1 | 268 to 270 |
| CCCc1c(OCCCCCOc2ccc3nc(CCC(=O)OCC)ccc3c2CCC(=O)OCC)ccc2c1OCCC2=O | 59 to 61 |
| CN1CN(c2ccccc2)C2(CCN(CCCC(=O)c3ccc(F)cc3I)CC2)C1=O | 115 to 118 |
| CCCOc1c(OCc2ccccc2)cc([C@H]2CC[C@H](c3cc(OC)c(OC)c(OC)c3)O2)cc1S(=O)(=O)CCO (relative stereo) | 112 to 113 |
| COc1ccc(-c2nc3cc(C(C(C)C)n4ccnc4)ccc3[nH]c2=O)cc1OC (configuration not stated) | 243 |
| Cc1cc2c(/C=C/C(=O)OCc3ccccc3)cccc2[nH]1 | 135 to 136 |
| CCCC/C=C/C(=O)N(C)c1ccc(S(=O)(=O)NC2CCCCCC2)cc1 | 114 |
| CC(C)(CCCCCCC(=O)CCCCCCC(C)(C)C(=O)O)C(=O)O | 74.5 to 76 |
| COc1ccc(-c2ccc(OC(CCC3=CCCCC3)C(=O)O)cc2)cc1 (configuration not stated) | 152 to 154 |
| Cc1ccc(C[C@@H](C(=O)O)[C@@H](O)c2ccc(F)cc2)cc1OC(F)(F)C(F)F (racemic) | 102 to 103 |
| O=C(Nc1ccc(Br)cc1)c1ccccc1NCc1ccncc1 | 136 to 137 |
| COc1cccc(S(=O)(=O)Nc2nccnc2OC)c1Cl | 151 to 152 |
| Cc1[nH]cc2c1-c1ccc(Cl)cc1C(c1ccccc1Cl)=NC2 | 219 to 222 |
| COC(=O)Cn1nnc(N)n1 | 127 to 128 |
| COC(=O)C(C)c1ccc(OCCNC(=O)C2Cc3ccccc3N2S(=O)(=O)c2ccc(-c3cccc(C(F)(F)F)c3)cc2)cc1 (configuration not stated) | 71 to 74 |
| COc1ccc(F)cc1Oc1c(Cl)ncnc1NS(=O)(=O)c1ccc(C(F)(F)F)cc1 | 185 to 186 |
| CON=C1Cc2ccccc2N(C(N)=O)c2ccccc21 | 158 to 159 |
| Cc1ccc2c(N=[N+]=[N-])c(C(=O)O)cnc2n1 | 198 |

| SMILES | melting point [°C] |
| --- | --- |
| CC(C)[C@@H](N)C(=O)NCC(F)(F)F | 43 to 47 |
| O=C1C2C3C=CC(CC3)C2S(=O)(=O)N1CCCCBr (configuration not stated) | 118 to 122 |
| CCOC(=O)c1cc2n(n1)CCCO2 | 44 to 46 |
| CC1(C)CCC(C)(C)c2c(O)cc(-c3ccccc3)cc21 | 121 |
| CCOc1ccc(C2CCC3c4ccc(OCC)c(F)c4OC3C2)c(F)c1F (configuration not stated) | 126 |
| N#CN1CCC(c2nn(C(=O)c3ccccc3)c3ccccc23)CC1 | 144 to 146 |
| Cc1ccc(-c2nc(COc3ccc(CCCn4ccnc4)cc3)co2)s1 | 83 to 84 |
| Cc1cccc(-c2nc3ccccn3c2-c2ccnc(-c3ccc(C(=O)NC4CCOCC4)cc3)c2)n1 | 128 |
| Cc1cccc(-c2nc3ccc(OCCCN(C)C)cc3n2Cc2ccccc2C(F)(F)F)c1 | 74 |
| C[C@@H](CO)COc1ccc(-c2ccc(Cl)nn2)cc1 | 134 to 138 |
| CCOC(=O)Nc1ccc(OC)c(OC)c1C=O | 86 to 88 |
| COc1ccc(S(=O)(=O)C(C)(Cc2ccccc2Br)C(=O)O)cc1 (configuration not stated) | 93 to 96 |
| Nc1c(Cl)cc(Cl)n2nc(SCc3ccccc3)nc12 | 118 to 119 |
| O=Cc1cc2cc3c(cc2nc1I)OCCO3 | 155 to 157 |
| Nc1nc(Nc2ccccc2)sc1C(=O)c1cccnc1 | 227 to 228 |
| Cc1cc(OCCCNCCC(N)=O)ccc1Cc1c(OC2OC(CO)C(O)C(O)C2O)n[nH]c1C(C)C (configuration not stated) | 191 to 193 |
| CC(=O)Nc1cccc(OCCCCC(=O)O)c1C=O | 119 to 121 |
| COc1cccc2c1nc(C(F)F)n2-c1nc(-c2cncnc2)cc(N2CCOCC2)n1 | 222 to 224 |
| CCCOc1cc(-c2c(C(=O)OCC)c(Cn3cnnc3)nc3cc(OC)c(OC)cc23)ccc1OC | 154 to 155 |
| CCOc1ccc(CC(CN2CC(=O)OC(=O)C2)N(CCN2CC(=O)OC(=O)C2)CC(=O)O)cc1 (configuration not stated) | 172 to 174 |
| O=C(O)C(Cc1ccccc1)Nc1ncnc(-c2ccc(OCc3ccccc3)cc2)c1CO (configuration not stated) | 114 to 117 |

| SMILES | melting point [°C] |
| --- | --- |
| O=C(CC(=O)c1ccc(O)cc1O)c1cc(OCc2ccccc2)cc(OCc2ccccc2)c1 | 179 to 181 |
| Nc1ccc(CCC(=O)c2ccc(F)cc2)cc1 | 54 to 55 |
| Nc1nc2[nH]c(CCCCCc3ccc(C(=O)N[C@@H](CCC(=O)O)C(=O)O)s3)cc2c(=O)[nH]1 | 181 to 182 |
| Cn1cc(OS(C)(=O)=O)c(=O)c2ccc(OCC(F)(F)F)cc21 | 110 to 112 |
| Cc1ccc(-c2ccc(Sc3ccccc3)s2)cc1C | 77 to 78 |
| C[C@H](NC(=O)C(SC(=O)c1ccccc1)SC(=O)c1ccccc1)C(=O)O | 161 to 162 |
| Nc1cnn(-c2cccc(C(F)(F)F)c2)c(=O)c1-c1cccc(C(F)(F)F)c1 | 68 to 70 |
| COC(=O)Cn1c(Cc2ccccc2)ccc(NC(=O)CCc2ccccc2)c1=O | 95 to 97 |
| CC12CC(N3CCC4(CC3)OCCO4)C(O)CC1CCC1C2CCC2(C)C(O)C(N3CCCC3)CC12 (configuration not stated) | 184 to 187 |
| O=P1(O)Oc2c(-c3ccc(Cl)cc3)cc(Cl)cc2-c2ccc(Cl)cc21 | 260 |
| CN(C)c1ccc2c(c1)CC(N1CCN(CCN3CCOC3=O)CC1)c1ccccc1S2 (configuration not stated) | 168 to 170 |
| COC(=O)[C@@H](Cc1ccccc1)NC(=O)Nc1n[nH]c(=S)s1 | 110 |
| CCN1C[C@@H](O)[C@H](N(C)C(=O)c2ccc([N+](=O)[O-])cc2)C1 (relative stereo) | 104 to 108 |
| Cc1oc(-c2ccccc2)nc1COc1cccc(CCCC2SC(=O)NC2=O)c1 (configuration not stated) | 123 to 124 |
| Cn1c(COc2ccc(CC3SC(=O)NC3=O)cc2)nc2ccc(Oc3ccc(NC(=O)c4ccccc4)cc3)cc21 (configuration not stated) | 200 to 204 |
| CCCCCCCCn1nc(C)c(N=Nc2c(O)cc(S(=O)(=O)N(CC)CC)c3ccccc23)c1O | 122 to 123 |
| O=c1nc(-c2cccc(Sc3ccncc3)n2)sc2ccccc12 | 245 to 246 |
| CCCCCC(=N)NC(=S)Nc1ccc(Cl)cc1 | 100 to 102 |
| O=C(Cc1ccc(Cl)c(Cl)c1)N1CCN2CCCC[C@@H]21 | 102 to 104 |
| CCc1c(-c2ccc(O)cc2)c2cc(COCCCN(C)C)c3cccc1n32 | 146 to 147 |
| C/C(=C\C=C\Cn1oc(=O)[nH]c1=O)c1cccc(OCc2nc(-c3ccccc3)oc2C)c1 | 117 to 118 |
